Source: paper PMC8119466, “A screen of FDA-approved drugs identifies inhibitors of protein tyrosine phosphatase 4A3 (PTP4A3 or PRL-3)” (Scientific Reports, 2021)
Like-named read-outs stand apart in the source and are kept apart here.

Key:
recombinant PRL-3 = biological target: T1, recombinant PRL-3 (Homo sapiens, UniProt O75365); experiment: In vitro phosphatase assay (DiFMUP hydrolysis), PRL-3; type: biochemical; conditions: for % Phosphatase Activity (compared to DMSO) PRL-3: FDA-approved drug screen; for IC50: DiFMUP at KM, read-out: Calculated IC50, PRL-3 phosphatase activity; for mode of inhibition (Lineweaver-Burke analysis): versus DiFMUP substrate, reduce apparent Vmax, do not affect KM
T1 construct: 6xHis (N, cleaved yes); made in house; host or cells: E. coli One Shot BL21 Star
T1 sequence (O75365 whole entry): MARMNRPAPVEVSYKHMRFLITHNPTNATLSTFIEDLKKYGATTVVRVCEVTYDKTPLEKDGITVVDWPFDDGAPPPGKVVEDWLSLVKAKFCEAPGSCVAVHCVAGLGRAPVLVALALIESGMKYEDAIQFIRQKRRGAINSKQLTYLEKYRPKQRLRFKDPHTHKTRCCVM

HEK293T cells [1] = experiment: MTT viability assay; type: cell-based, human; conditions: 16 h
Description: Cells were seeded into duplicate wells of a 96 well plate at a density of 2 × 10^4 cells per well and allowed to recover for 24 h. Cells were then treated with drug or DMSO at the indicated concentrations for 16 h. Following drug treatment, 10 μL of 5 mg/ml MTT (Sigma, M5655) was added to each well and cells were incubated for 4 h. Finally, media were removed, and the dye was solubilized in 100 μL of 0.1 M HCl in isopropanol. Absorbance was measured at 570 nm and 690 nm with final absorbance measurements as 570–690 nm.

HCT116 cells [2] = experiment: Scratch (migration) assay, HCT116; type: cell-based, human; conditions: 24 h, 100 µM Salirasib or 25 µM Candesartan
Description: pENTR-PRL-3 (previously described[51]) was cloned into pLKO-CMV-puro using LR clonase (Thermofisher, 11,791,019) according to manufacturer’s directions. pLKO-CMV empty vector (EV) and pLKO-CMV:PRL-3 were transfected into HEK293T using Lipofectamine 3000 (ThermoFisher, L3000015) according to manufacturer’s protocol. Transfected cells were selected with 1 µg/mL puromycin in complete media to establish the cell line, then were maintained under 0.5 µg/mL puromycin in complete media. For PRL-3 knockdown, pLKO.1-scrambled shRNA and pLKO.1-PRL-3 shRNA[51] plasmids were transfected into HCT116 cells using Lipofectamine 3000 (Thermo Fisher, Cat # L3000015) according to the manufacturer’s directions. Cells were selected for 48 h in 1 µg/mL puromycin before use in assays.
Cells were seeded into duplicate wells of a 48 well plates at a density of 2 × 10^5 cells per well for HEK293T or 4 × 10^5 for HCT116 and SW480. Cells were recovered overnight and were scratched using a p20 pipette tip the following day. Compounds were added at the concentrations indicated. Images were obtained immediately after the scratch and after a 24 h incubation with the drug on an Evos FL inverted microscope (ThermoFisher). The area within the scratch was calculated using ImageJ. The area migrated was measured as the difference in wound area at 0 h and 24 h and the percent change in migration was calculated by dividing the difference in wound area of treatment by the difference in wound area of the control.

HCT116 cells [3] = experiment: Click-IT Edu cell proliferation assay, HCT116; type: cell-based, human; conditions: HCT-116; 100 µM Salirasib or 25 µM Candesartan; 24 and 48 hr
Description: (§1) The cell proliferation assay was performed using the Click-IT Edu cell proliferation kit from (Thermo Fisher, Cat # C10419) according to the manufacturer’s protocol. Briefly, HEK293T, HCT116 and SW480 cells were plated in 6 well dishes at 4 × 10^5 cell seeding density and treated with DMSO, Candesartan and Salirasib at the indicated concentrations. Edu was added 2 h prior to collecting the cells at 24 h and 48 h time points and the assay was performed according to the instructions from the manual. Flow cytometry with AlexaFluor647 conjugated azide dye was used to determine the cellular proliferation and DAPI was used for the DNA content.

SW480 cells [4] = experiment: Click-IT Edu cell proliferation assay, SW480; type: cell-based, human; conditions: 100 µM Salirasib or 25 µM Candesartan, 24 and 48 hr
Description: as §1

HEK293T cells [5] = experiment: Annexin V staining, HEK293T; type: cell-based, human; conditions: 100 µM Salirasib or 25 µM Candesartan, 24 and 48 hr
Description: (§2) HEK293T, HCT116, and SW480 cells were plated in 6 well dishes at 4 × 10^5 cell seeding density and treated with DMSO, Candesartan and Salirasib at the indicated concentrations. Cells were collected at 24 h and 48 h time points and the AnnexinV staining was performed according to the instructions from the manual (Thermo Fisher, Cat # 00-0055-56). Flow cytometry with AnnexinV-FITC conjugated antibody (Thermo Fisher, Cat # A13199) was used to determine the population of cells incorporating Annexin V and PI was used for the DNA content.

SW480 cells [6] = experiment: Annexin V staining, SW480; type: cell-based, human; conditions: 100 µM Salirasib or 25 µM Candesartan, 24 and 48 hr
Description: as §2

ACP1 (LMPTP-A) = biological target: T2, ACP1 (LMPTP-A) (Homo sapiens, UniProt P24666); experiment: PhosphataseProfiler (Eurofins) selectivity panel; type: biochemical; conditions: 25µM
T2 construct: purchased Eurofins PP260
T2 sequence (P24666 whole entry): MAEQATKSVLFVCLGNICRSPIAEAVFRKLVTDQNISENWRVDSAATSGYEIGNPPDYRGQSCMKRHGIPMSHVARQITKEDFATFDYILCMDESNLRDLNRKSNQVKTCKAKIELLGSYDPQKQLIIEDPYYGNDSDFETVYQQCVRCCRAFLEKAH
Description: (§3) Briefly, protein was diluted in reaction buffer and allowed to incubate at 4 °C for 20 min to allow for full reduction of the active site. DiFMUP, drug, and protein were added, and plates were incubated for 20 min at room temperature. Fluorescence intensities were measured on a Cytation 5 plate reader (Biotek) at an EX:360 nm and EM:460 nm. […] Inhibition selectivity for PRLs over a panel of other phosphatases was determined using PhosphataseProfiler (Eurofins, Cat # PP260).

ACP1 (LMPTP-B) = biological target: T3, ACP1 (LMPTP-B) (Homo sapiens, UniProt P24666); experiment: PhosphataseProfiler (Eurofins) selectivity panel; type: biochemical; conditions: 25µM
T3 construct: purchased Eurofins PP260
T3 sequence (P24666 1-158 isoform P24666-2): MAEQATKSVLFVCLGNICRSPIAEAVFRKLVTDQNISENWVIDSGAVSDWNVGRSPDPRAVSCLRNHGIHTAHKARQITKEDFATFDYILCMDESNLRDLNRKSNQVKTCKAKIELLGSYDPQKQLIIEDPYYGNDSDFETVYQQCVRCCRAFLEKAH
Description: as §3

MKP5 = biological target: T4, MKP5 (Homo sapiens, UniProt Q9Y6W6); experiment: PhosphataseProfiler (Eurofins) selectivity panel; type: biochemical; conditions: MKP5, 25µM
T4 construct: purchased Eurofins PP260
T4 sequence (Q9Y6W6 whole entry): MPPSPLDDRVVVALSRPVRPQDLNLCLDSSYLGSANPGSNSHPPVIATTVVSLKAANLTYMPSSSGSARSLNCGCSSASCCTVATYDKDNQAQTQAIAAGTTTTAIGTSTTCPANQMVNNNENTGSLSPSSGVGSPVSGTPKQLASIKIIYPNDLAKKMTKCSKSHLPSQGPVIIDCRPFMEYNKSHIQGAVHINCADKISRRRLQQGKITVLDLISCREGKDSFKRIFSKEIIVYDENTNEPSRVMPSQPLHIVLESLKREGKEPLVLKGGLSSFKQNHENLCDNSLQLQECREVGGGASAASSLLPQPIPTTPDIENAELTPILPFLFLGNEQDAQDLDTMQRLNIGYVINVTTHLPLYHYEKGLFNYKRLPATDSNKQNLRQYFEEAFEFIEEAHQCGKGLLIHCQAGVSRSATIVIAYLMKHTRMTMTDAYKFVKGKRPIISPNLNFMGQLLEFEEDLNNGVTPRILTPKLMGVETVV

PP1alpha = biological target: T5, PP1alpha (Homo sapiens, UniProt P62136); experiment: PhosphataseProfiler (Eurofins) selectivity panel; type: biochemical; conditions: 25µM
T5 construct: purchased Eurofins PP260
T5 sequence (P62136 whole entry): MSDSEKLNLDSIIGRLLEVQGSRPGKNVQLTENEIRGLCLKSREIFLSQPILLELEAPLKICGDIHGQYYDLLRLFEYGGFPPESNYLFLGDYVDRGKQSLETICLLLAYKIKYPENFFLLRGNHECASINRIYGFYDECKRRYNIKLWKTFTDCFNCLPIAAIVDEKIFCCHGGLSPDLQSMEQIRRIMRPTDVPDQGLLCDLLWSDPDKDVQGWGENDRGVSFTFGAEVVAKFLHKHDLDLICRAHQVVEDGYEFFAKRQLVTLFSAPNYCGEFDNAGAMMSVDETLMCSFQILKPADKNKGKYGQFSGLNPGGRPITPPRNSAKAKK

PTP1B = biological target: T6, PTP1B (Homo sapiens, UniProt P18031); experiment: PhosphataseProfiler (Eurofins) selectivity panel; type: biochemical; conditions: 25µM
T6 construct: purchased Eurofins PP260
T6 sequence (P18031 whole entry): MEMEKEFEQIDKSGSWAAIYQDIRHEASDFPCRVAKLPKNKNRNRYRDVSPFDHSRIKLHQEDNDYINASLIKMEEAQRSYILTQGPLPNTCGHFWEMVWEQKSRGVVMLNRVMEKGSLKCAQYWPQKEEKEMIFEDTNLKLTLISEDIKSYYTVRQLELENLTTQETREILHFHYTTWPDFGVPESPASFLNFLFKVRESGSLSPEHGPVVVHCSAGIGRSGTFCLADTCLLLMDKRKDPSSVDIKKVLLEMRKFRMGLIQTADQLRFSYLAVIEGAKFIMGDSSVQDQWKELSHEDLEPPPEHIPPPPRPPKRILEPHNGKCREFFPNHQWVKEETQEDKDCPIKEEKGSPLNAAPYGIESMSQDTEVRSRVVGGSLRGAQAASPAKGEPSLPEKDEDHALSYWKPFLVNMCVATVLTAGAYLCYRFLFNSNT

PTPbeta = biological target: T7, PTPbeta (Homo sapiens, UniProt P23467); experiment: PhosphataseProfiler (Eurofins) selectivity panel; type: biochemical; conditions: 25µM
T7 construct: purchased Eurofins PP260

Yoph = biological target: T8, Yoph (Yersinia enterocolitica, UniProt P15273); experiment: PhosphataseProfiler (Eurofins) selectivity panel; type: biochemical; conditions: 25µM
T8 construct: purchased Eurofins PP260
T8 sequence (P15273 whole entry, species assumed): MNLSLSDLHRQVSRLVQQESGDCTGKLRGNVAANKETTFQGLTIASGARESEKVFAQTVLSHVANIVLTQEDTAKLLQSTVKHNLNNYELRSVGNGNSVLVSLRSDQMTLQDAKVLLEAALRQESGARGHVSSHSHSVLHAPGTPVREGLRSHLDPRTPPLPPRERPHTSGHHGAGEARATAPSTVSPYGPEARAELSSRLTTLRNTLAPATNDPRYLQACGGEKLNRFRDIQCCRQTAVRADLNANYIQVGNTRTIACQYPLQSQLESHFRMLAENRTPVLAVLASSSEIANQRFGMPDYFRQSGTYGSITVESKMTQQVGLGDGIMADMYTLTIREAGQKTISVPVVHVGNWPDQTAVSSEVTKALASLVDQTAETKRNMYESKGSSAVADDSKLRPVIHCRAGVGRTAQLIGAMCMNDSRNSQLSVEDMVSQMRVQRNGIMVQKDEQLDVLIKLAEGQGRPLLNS
Description: In 384 well plates, 2.5 μM recombinant PRL-1, PRL-2, or PRL-3 was combined with DiFUMP (Life Technologies, Cat # E12020) at the KM of each protein in reaction buffer (20 mM Tris–Cl, pH 7.5, 150 mM NaCl, 10 mM DTT) as previously reported. Briefly, protein was diluted in reaction buffer and allowed to incubate at 4 °C for 20 min to allow for full reduction of the active site. DiFMUP, drug, and protein were added, and plates were incubated for 20 min at room temperature. Fluorescence intensities were measured on a Cytation 5 plate reader (Biotek) at an EX:360 nm and EM:460 nm. Data were normalized to vehicle control and IC50 values were calculated on GraphPad Prism version 8. Inhibition selectivity for PRLs over a panel of other phosphatases was determined using PhosphataseProfiler (Eurofins, Cat # PP260).

PTPN22 = biological target: T9, PTPN22 (Homo sapiens, UniProt Q9Y2R2); experiment: PhosphataseProfiler (Eurofins) selectivity panel; type: biochemical; conditions: PTPN22, 25µM
T9 construct: purchased Eurofins PP260
T9 sequence (Q9Y2R2 whole entry): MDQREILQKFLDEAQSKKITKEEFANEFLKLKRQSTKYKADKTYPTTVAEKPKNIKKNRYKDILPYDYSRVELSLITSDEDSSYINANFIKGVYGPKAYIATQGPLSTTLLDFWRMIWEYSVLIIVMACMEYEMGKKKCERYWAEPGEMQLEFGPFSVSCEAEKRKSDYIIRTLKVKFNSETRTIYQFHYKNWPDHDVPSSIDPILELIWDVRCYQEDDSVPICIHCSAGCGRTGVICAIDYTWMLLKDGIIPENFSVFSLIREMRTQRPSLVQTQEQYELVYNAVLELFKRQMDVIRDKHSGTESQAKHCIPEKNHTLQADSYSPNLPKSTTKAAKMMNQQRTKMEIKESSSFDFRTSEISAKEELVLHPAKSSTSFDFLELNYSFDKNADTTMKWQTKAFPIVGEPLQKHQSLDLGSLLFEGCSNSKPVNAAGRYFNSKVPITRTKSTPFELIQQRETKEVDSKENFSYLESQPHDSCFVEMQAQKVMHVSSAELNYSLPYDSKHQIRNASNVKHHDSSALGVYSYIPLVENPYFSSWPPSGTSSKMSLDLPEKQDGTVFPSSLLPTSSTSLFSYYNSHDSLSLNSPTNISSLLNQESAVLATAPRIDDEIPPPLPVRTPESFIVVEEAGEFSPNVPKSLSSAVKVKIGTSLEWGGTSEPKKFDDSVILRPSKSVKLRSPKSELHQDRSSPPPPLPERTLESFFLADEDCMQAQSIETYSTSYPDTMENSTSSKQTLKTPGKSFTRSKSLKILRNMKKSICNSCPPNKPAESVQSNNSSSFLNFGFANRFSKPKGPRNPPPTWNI

PTPRM = biological target: T10, PTPRM (Homo sapiens, UniProt P28827); experiment: PhosphataseProfiler (Eurofins) selectivity panel; type: biochemical; conditions: 25µM
T10 construct: purchased Eurofins PP260

SHP1 = biological target: T11, SHP1 (Homo sapiens, UniProt P29350); experiment: PhosphataseProfiler (Eurofins) selectivity panel; type: biochemical; conditions: SHP1, 25µM
T11 construct: purchased Eurofins PP260
T11 sequence (P29350 whole entry): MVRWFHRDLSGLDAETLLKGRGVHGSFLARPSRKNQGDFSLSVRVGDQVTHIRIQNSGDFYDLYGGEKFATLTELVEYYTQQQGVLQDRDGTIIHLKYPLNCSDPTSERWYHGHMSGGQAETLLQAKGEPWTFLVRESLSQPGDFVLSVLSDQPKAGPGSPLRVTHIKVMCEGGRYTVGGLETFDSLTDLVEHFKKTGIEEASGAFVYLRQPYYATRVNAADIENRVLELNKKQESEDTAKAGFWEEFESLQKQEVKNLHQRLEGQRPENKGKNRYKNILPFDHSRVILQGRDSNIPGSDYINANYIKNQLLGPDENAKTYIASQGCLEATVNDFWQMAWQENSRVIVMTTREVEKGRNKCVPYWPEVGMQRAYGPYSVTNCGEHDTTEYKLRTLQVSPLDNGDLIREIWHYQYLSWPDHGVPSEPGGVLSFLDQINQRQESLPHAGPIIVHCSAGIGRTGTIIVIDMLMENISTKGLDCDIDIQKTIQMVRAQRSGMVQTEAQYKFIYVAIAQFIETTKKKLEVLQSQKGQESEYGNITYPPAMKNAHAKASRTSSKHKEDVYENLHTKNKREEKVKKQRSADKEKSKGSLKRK

SHP2 = biological target: T12, SHP2 (Homo sapiens, UniProt Q06124); experiment: PhosphataseProfiler (Eurofins) selectivity panel; type: biochemical; conditions: SHP2, 25µM
T12 construct: purchased Eurofins PP260
T12 sequence (Q06124 whole entry): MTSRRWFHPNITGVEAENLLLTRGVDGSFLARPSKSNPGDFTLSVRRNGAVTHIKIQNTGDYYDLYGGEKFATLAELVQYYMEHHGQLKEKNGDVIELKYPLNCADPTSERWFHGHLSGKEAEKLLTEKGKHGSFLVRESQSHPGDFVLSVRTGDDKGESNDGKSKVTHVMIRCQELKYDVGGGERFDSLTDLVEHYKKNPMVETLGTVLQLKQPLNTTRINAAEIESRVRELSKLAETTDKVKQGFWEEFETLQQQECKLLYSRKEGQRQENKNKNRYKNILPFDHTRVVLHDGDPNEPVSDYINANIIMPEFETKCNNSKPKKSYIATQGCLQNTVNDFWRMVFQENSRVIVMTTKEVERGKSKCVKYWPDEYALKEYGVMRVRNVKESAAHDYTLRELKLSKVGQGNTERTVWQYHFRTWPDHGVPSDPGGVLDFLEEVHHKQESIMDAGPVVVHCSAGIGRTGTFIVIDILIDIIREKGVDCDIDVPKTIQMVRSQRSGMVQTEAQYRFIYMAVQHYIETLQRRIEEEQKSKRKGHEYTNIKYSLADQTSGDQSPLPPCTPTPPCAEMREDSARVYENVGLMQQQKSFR

TCPTP = biological target: T13, TCPTP (Homo sapiens, UniProt P17706); experiment: PhosphataseProfiler (Eurofins) selectivity panel; type: biochemical; conditions: 25µM
T13 construct: purchased Eurofins PP260
T13 sequence (P17706 whole entry): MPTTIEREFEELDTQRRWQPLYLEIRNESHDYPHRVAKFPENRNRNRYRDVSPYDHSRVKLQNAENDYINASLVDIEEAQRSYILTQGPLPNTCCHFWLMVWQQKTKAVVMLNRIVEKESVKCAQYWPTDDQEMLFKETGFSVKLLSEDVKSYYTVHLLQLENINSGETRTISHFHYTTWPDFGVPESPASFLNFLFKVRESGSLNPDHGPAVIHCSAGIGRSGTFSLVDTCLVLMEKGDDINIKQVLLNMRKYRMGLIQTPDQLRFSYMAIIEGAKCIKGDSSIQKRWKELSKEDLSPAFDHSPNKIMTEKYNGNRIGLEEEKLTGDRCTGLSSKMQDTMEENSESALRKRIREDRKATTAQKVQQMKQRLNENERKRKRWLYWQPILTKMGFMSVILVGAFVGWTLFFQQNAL

VHR = biological target: T14, VHR (Homo sapiens, UniProt P51452); experiment: PhosphataseProfiler (Eurofins) selectivity panel; type: biochemical; conditions: 25µM
T14 construct: purchased Eurofins PP260
T14 sequence (P51452 whole entry): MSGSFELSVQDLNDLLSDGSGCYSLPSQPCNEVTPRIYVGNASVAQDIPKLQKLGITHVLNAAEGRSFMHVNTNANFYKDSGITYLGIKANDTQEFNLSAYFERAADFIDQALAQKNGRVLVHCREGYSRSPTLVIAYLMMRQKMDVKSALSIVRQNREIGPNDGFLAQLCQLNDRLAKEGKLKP

Compound	mode of inhibition (Lineweaver-Burke analysis) (recombinant PRL-3)	migration of HCT116 cells with PRL-3 knock-down (PRL-3 shRNA) (HCT116 cells [2])	cell cycle (EdU staining) (HCT116 cells [3])	cell cycle (EdU staining) (SW480 cells [4])	Percent Phosphatase Activity (compared to DMSO) (ACP1 (LMPTP-A)) [%]	Percent Phosphatase Activity (compared to DMSO) (ACP1 (LMPTP-B)) [%]	Percent Phosphatase Activity (compared to DMSO) (MKP5) [%]	Percent Phosphatase Activity (compared to DMSO) (PP1alpha) [%]	Percent Phosphatase Activity (compared to DMSO) (PTP1B) [%]	Percent Phosphatase Activity (compared to DMSO) (PTPbeta) [%]	Percent Phosphatase Activity (compared to DMSO) (PTPN22) [%]	Percent Phosphatase Activity (compared to DMSO) (PTPRM) [%]	Percent Phosphatase Activity (compared to DMSO) (SHP1) [%]	Percent Phosphatase Activity (compared to DMSO) (SHP2) [%]	Percent Phosphatase Activity (compared to DMSO) (TCPTP) [%]	Percent Phosphatase Activity (compared to DMSO) (VHR) [%]	other results
CCOc1nc2cccc(C(=O)O)c2n1Cc1ccc(-c2ccccc2-c2nnn[nH]2)cc1 [Candesartan]	non-competitive inhibitors	no additional impact on migration	did not significantly impact	did not significantly impact	97	113	99	105	109	85	136	107	116	104	128	87	% Phosphatase Activity (compared to DMSO) PRL-3 (recombinant PRL-3): 82%; % Phosphatase Activity (compared to DMSO) PRL-3 (recombinant PRL-3; listed as Candesartan Cilexetil): -3.55%; IC50 (recombinant PRL-3; […] protein): 28 ± 4 µM; viability (MTT) (HEK293T cells [1]; 100 µM): viability dropped significantly; viability (MTT) (HEK293T cells [1]; up to 50 µM): insignificant effect on viability; inhibition of migration of HCT116 cells (HCT116 cells [2]; vs DMSO): > 30%; apoptosis (AnnexinV plus propidium iodide) (HEK293T cells [5]): did not significantly impact; apoptosis (AnnexinV plus propidium iodide) (SW480 cells [6]): did not significantly impact; Percent Phosphatase Activity (compared to DMSO) (Yoph): 112%
CC(C)=CCC/C(C)=C/CC/C(C)=C/CSc1ccccc1C(=O)O [Salirasib]	non-competitive inhibitors	significantly reduced migration	did not significantly impact	did not significantly impact	96	106	106	104	114	91	129	111	113	103	118	97	IC50 (recombinant PRL-3; 2.5 µM protein): 27 ± 3 µM; viability (MTT) (HEK293T cells [1]; drug doses 1 to 100 µM, normalized to 1% DMSO): no effect on the viability; inhibition at 100 µM (HCT116 cells [2]; Homo sapiens, HCT-116, vs DMSO): > 30%
